Tests used:
Cytochrome P450 2A6 = molecular target: T1, Cytochrome P450 2A6 (Homo sapiens, UniProt P11509); details: bti-tn-5b1-4; also: in other assays of this panel Not Active means under 50% inhibition at 10 µM
T1 sequence (P11509 whole entry): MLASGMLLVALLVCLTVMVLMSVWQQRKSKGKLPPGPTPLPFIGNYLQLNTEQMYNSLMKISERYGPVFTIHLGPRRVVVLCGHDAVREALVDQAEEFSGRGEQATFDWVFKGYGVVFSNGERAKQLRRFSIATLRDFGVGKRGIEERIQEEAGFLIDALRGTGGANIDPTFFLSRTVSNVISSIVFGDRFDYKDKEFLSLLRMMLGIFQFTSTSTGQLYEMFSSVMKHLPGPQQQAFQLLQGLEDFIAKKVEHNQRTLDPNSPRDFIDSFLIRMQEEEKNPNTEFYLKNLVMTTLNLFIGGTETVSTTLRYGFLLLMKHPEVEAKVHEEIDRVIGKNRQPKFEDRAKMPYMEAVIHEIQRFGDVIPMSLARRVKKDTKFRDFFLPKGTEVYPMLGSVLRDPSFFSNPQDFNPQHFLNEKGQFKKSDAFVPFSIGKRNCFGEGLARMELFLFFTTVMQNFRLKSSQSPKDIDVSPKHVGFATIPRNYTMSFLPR

[1] = DRUGMATRIX: beta-Lactamase enzyme inhibition (substrate: Nitrocefin); set-up: species or system Bacillus cereus; details: Not Active = under 50% inhibition at 10 µM
[2] = molecular target: Sodium-dependent noradrenaline transporter (Homo sapiens, UniProt P23975); assay: DRUGMATRIX: Norepinephrine Transporter radioligand binding (ligand: [125I] RTI-55); assay type: cell membranes, MDCK, Membrane; details: Not Active = under 50% inhibition at 10 µM
[3] = molecular target: Receptor tyrosine-protein kinase erbB-2 (Homo sapiens, UniProt P04626); assay: biochemical; assay type: cell-based, Insect cells; details: insect cells;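 also: inhibition of HER2 kinase enzyme activity, measured with Poly(Glu:Tyr) as the phosphorylation substrate; in other assays of this panel Not Active means under 50% inhibition at 10 µM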
[4] = DRUGMATRIX: GABAA, Muscimol, Central radioligand binding (ligand: [3H] Muscimol); assay type: cell membranes, Rattus norvegicus, Wistar, Brain, Membrane; details: Not Active = under 50% inhibition at 10 µM
Cannabinoid receptor 1 = Cannabinoid receptor 1 (Homo sapiens, UniProt P21554); assay type: cell membranes, Membrane; details: chem-1; also: in other assays of this panel Not Active means under 50% inhibition at 10 µM
[5] = molecular target: T2, Alpha-1B adrenergic receptor (Rattus norvegicus, UniProt P15823); assay: DRUGMATRIX: Alpha-1B adrenergic receptor radioligand binding (ligand: prazosin); assay type: cell membranes, Wistar, Liver, Membrane; details: Not Active = under 50% inhibition at 10 µM
T2 sequence (P15823 whole entry): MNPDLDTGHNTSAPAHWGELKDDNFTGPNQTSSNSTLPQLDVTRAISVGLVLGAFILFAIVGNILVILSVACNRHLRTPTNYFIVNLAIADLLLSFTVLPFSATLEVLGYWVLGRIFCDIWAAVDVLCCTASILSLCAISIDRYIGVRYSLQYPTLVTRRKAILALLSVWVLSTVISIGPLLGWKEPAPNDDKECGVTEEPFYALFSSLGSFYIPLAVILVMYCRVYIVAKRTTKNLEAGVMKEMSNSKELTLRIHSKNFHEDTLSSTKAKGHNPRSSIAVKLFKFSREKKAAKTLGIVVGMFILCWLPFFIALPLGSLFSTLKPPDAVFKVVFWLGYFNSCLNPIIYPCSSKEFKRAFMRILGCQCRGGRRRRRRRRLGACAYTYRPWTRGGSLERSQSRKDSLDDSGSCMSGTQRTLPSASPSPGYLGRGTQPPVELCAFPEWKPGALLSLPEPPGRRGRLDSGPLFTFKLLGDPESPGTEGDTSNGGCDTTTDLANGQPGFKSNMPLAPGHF

Chain of Cannabinoid receptor 1 (P21554 whole entry): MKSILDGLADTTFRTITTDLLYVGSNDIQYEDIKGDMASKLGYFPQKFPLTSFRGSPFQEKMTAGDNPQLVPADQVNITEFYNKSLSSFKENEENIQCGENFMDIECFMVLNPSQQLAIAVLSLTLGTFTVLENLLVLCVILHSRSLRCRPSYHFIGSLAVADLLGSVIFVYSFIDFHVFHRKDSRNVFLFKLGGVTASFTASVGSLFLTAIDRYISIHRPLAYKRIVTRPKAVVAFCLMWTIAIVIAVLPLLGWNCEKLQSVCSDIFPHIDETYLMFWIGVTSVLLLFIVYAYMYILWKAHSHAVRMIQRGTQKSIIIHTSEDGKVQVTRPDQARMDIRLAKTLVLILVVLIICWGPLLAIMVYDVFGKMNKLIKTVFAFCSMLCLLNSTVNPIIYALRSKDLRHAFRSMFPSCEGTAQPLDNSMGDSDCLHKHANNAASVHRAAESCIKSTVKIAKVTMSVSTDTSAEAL
Chain of Sodium-dependent noradrenaline transporter (P23975 whole entry): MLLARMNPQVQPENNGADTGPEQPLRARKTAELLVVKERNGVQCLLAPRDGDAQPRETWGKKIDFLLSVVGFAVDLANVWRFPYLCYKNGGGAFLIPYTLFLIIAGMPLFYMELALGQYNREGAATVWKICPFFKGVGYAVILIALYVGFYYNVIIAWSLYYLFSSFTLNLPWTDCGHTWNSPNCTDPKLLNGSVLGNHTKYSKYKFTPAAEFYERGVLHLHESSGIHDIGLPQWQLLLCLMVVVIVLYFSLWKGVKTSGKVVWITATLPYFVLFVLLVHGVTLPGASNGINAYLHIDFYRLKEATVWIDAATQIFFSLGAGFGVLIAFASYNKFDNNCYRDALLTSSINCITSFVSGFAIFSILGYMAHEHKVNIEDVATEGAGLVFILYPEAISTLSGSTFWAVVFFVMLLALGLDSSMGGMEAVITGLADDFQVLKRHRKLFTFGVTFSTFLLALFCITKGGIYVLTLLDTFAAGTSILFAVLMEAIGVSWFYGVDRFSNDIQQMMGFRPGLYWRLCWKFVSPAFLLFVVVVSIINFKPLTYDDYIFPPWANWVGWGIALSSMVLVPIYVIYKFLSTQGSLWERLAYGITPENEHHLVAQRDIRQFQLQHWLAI

| Compound | IC50 (Cytochrome P450 2A6) | Ki (Cytochrome P450 2A6) | IC50 [1] | Ki [1] | IC50 ([2]; read-out: IC50) | Ki ([2]; read-out: Ki) | IC50 [3] | IC50 [4] | Ki [4] | IC50 (Cannabinoid receptor 1) | IC50 [5] | IC50 ([2]; mdck) | Ki ([2]; mdck) | Ki [3] | Ki (Cannabinoid receptor 1) | Ki [5] |
| --- | --- | --- | --- | --- | --- | --- | --- | --- | --- | --- | --- | --- | --- | --- | --- | --- |
| Nc1c2c(nc3ccccc13)CCCC2 [TACRINE] | Not Active | Not Active | Not Active | Not Active | 517 nM | 513 nM | Not Active | Not Active | Not Active | Not Active | Not Active | – | – | – | – | – |
| Nc1nc2nc[nH]c2c(=S)[nH]1 [THIOGUANINE] | Not Active | Not Active | Not Active | Not Active | – | – | Not Active | Not Active | Not Active | Not Active | Not Active | Not Active | – | – | – | – |
| Cc1cccc(N(C)C(=S)Oc2ccc3ccccc3c2)c1 [TOLNAFTATE] | Not Active | Not Active | Not Active | Not Active | – | – | Not Active | Not Active | Not Active | Not Active | Not Active | Not Active | – | – | – | – |
| NC[C@H]1CC[C@H](C(=O)O)CC1 [TRANEXAMIC ACID] | Not Active | Not Active | Not Active | Not Active | – | – | Not Active | Not Active | Not Active | Not Active | Not Active | Not Active | – | – | – | – |
| CC1(C)O[C@@H]2C[C@H]3[C@@H]4CCC5=CC(=O)C=C[C@]5(C)[C@@]4(F)[C@@H](O)C[C@]3(C)[C@]2(C(=O)CO)O1 [TRIAMCINOLONE ACETONIDE] | Not Active | Not Active | Not Active | Not Active | – | – | Not Active | Not Active | Not Active | Not Active | Not Active | Not Active | – | – | – | – |
| NS(=O)(=O)c1cc2c(cc1Cl)NC(C(Cl)Cl)NS2(=O)=O (stereo not given) [TRICHLORMETHIAZIDE] | Not Active | Not Active | Not Active | Not Active | – | – | Not Active | Not Active | Not Active | Not Active | Not Active | Not Active | – | – | – | – |
| Cc1c(C)c2c(c(C)c1O)CCC(C)(COc1ccc(CC3SC(=O)NC3=O)cc1)O2 (stereo not given) [TROGLITAZONE] | Not Active | Not Active | Not Active | Not Active | – | – | Not Active | Not Active | Not Active | Not Active | Not Active | Not Active | – | – | – | – |
| N[C@@H]1[C@H]2CN(c3nc4c(cc3F)c(=O)c(C(=O)O)cn4-c3ccc(F)cc3F)C[C@@H]12 [TROVAFLOXACIN] | Not Active | Not Active | Not Active | Not Active | – | – | Not Active | Not Active | Not Active | Not Active | Not Active | Not Active | – | – | – | – |
| N#CC(C#N)=Cc1ccc(O)c(O)c1 [TYRPHOSTIN 23] | Not Active | Not Active | Not Active | Not Active | – | – | Not Active | Not Active | Not Active | Not Active | Not Active | Not Active | – | – | – | – |
| CC[C@]1(O)C[C@H]2CN(CCc3c([nH]c4ccccc34)[C@@](C(=O)OC)(c3cc4c(cc3OC)N(C=O)[C@H]3[C@@](O)(C(=O)OC)[C@H](OC(C)=O)[C@]5(CC)C=CCN6CC[C@]43[C@@H]65)C2)C1 [VINCRISTINE] | Not Active | Not Active | Not Active | Not Active | – | – | Not Active | Not Active | Not Active | Not Active | Not Active | Not Active | – | – | – | – |
| CCCOc1ccccc1-c1nc2nn[nH]c2c(=O)[nH]1 [ZAPRINAST] | Not Active | Not Active | Not Active | Not Active | – | – | Not Active | Not Active | Not Active | Not Active | Not Active | Not Active | – | – | – | – |
| SODIUM NITROPRUSSIDE | Not Active | Not Active | Not Active | Not Active | – | – | Not Active | Not Active | Not Active | Not Active | Not Active | Not Active | Not Active | Not Active | Not Active | Not Active |
